Source: US6506730B1, “Nasal transmucosal delivery of peptide conjugated with biocompatible polymers” (priority 1999, dated 2003)
Where no end group is shown, it is not given here.

Columns and labels:
[1] = oral administration; cited from earlier work
[2] = pH 5.5 to 6.0; cited from earlier work
[3] = system: calcium concentration in plasma; test: Comparison of calcium reduction effect of sCT and PEG-sCT after nasal administration to rats; format: in vivo, SD (Sprague Dawley) male rat; conditions: rat; for plasma calcium as % of pre-dose value: n = 4, plasma calcium as ratio to primary value
Protocol: SD (Sprague Dawley) male rat (220-300 g, Charles River Japan, Atsugi, Japan) was put under anesthesia by administrating 45 mg/kg of peptobarbital into interperitoneal. Bronchus and esophagus were cannulated with PE-250 tube and thigh arteria with SP-45 tube. 20 ul of a placebo and experimental drugs were administered into the nasal cavity of rats with a Hamilton syringe. The placebo used physiological saline and the experimental drug used PEG5000-sCT, PEG12000-sCT, PEG2000-sCT and sCT prepared from the Example 2. Salmon calcitonin was administered at dose of 0.05 to 4.5 IU per rat, and rats were grouped into 4. 200 ul of blood was taken at before, 5, 10, 30, 60, 120, 240, 480 and […] after the placebo and the experimental drugs were administered, and immediately centrifuged to obtain 100 ul of plasma. The calcium concentration in plasma was measured using a calcium assay kit (Sigma, USA), and calcium remaining efficiency was calculated as the calcium concentration before administration was 100. The unit of the measured calcium concentration in plasma was mg/dl, and the remaining efficiency was calculated as the ratio (%) to the primary value.
After the remaining coefficient was calculated according to each time, area-under the curve (AUC) was calculated about the average value of remaining coefficient at each time per experimental group. The reduction ratio of calcium concentration was calculated by the mathematical formula 1, and the results were represented in the table 1 (FIG. 6).
? ΓD(%)=(AUCCa-plac−AUCCa-sCT)/AUCCa-plac ? ┐100
where, AUCCa-plac was AUC from placebo administration to 960 minutes, and AUCCa-sCT was AUC from calcitonin and experimental drugs administration to 960 minutes.

[4] = system: calcium concentration in plasma; test: as above; format: in vivo, SD (Sprague Dawley) male rat; conditions: Time 960 (minutes after nasal administration); rat, n = 4; plasma calcium as ratio to primary value
[5] = nasal transmucosal administration

| Substance | absorption half life [1] [min] | bioavailability [1] [%] | elimination half life [1] [min] | stability in acetate buffer [2] | plasma calcium as % of pre-dose value ([3]; Time 0 (before administration = 100), nasal cavity) [%] | plasma calcium as % of pre-dose value ([3]; Time 5 (minutes after nasal administration)) [%] | plasma calcium as % of pre-dose value ([3]; Time 10 (minutes after nasal administration)) [%] | plasma calcium as % of pre-dose value ([3]; Time 30 (minutes after nasal administration)) [%] | plasma calcium as % of pre-dose value ([3]; Time 60 (minutes after nasal administration)) [%] | plasma calcium as % of pre-dose value ([3]; Time 120 (minutes after nasal administration)) [%] | plasma calcium as % of pre-dose value ([3]; Time 240 (minutes after nasal administration)) [%] | plasma calcium as % of pre-dose value ([3]; Time 480 (minutes after nasal administration)) [%] | time after which calcium concentration restored at the original concentration [3, 5] [h] | time for which the calcium concentration was decreased / reduction effect represented after the nasal transmucosal administration [3, 5] [h] | plasma calcium as % of pre-dose value [4] [%] |
| --- | --- | --- | --- | --- | --- | --- | --- | --- | --- | --- | --- | --- | --- | --- | --- |
| His-Asp-Tyr-Ala-Tyr-Asp-Lys-NH2 (HDYAYDK-NH2) [GHRP-6] | 15 | 0.3 | 60 | very stable | – | – | – | – | – | – | – | – | – | – | – |
| salmon calcitonin [sCT] | – | – | – | – | 100 | 98.9 | 93.7 | 95 | 98.7 | 97.8 | 100.3 | 101.6 | 2 | 1 | 101 |
